Data reported in publication PMC12181260, “Design and synthesis of novel pyridopyrimidine moieties linked to coumarin ring of potentially active cytotoxic agents and their docking study” (Scientific Reports, 2025).
Converted amounts (≈) assume the structure as drawn.

Key:
HepG2 = test: Cytotoxicity (anticancer screening) on HepG2; assay type: cell-based, human; settings: for IC50: HepG2, human hepatocellular liver carcinoma cell line, 72 h of incubation; for activity class against HepG2: SAR statement, four tested cell lines
Description: (§1) Keeping the aforementioned details in mind, the objective of this study was to synthesize new pharmaceuticals for anticancer assessment as a trial to produce newer antitumor drugs with increased activity and minimal adverse effects. Human hepatocellular liver carcinoma cell line (HepG2), human lung fibroblast cell line (WI-38), human breast adenocarcinoma cell line (MCF-7), and normal adult African green monkey kidney cell line (VERO) were the four different types of […] cell lines used to test the anticancer activity of all newly synthesized compounds (Fig. 5).
(§2) It was carried out according to the previously reported work[48].

WI-38 = test: Cytotoxicity (anticancer screening) on WI-38; assay type: cell-based, human; settings: for IC50: WI-38, human lung fibroblast cell line, 72 h of incubation; for activity class against WI-38: SAR statement, four tested cell lines
Description: as §1, §2

VERO = test: Cytotoxicity (anticancer screening) on VERO; assay type: cell-based; settings: Chlorocebus sabaeus, normal adult African green monkey kidney cell line, 72 h of incubation
Description: as §1, §2

MCF-7 = test: Cytotoxicity (anticancer screening) on MCF-7; assay type: cell-based, human; settings: for IC50: MCF7, human breast adenocarcinoma cell line, 72 h of incubation; for activity class against MCF-7: SAR statement, four tested cell lines
Description: as §1, §2

Row | SMILES | IC50 (HepG2) | IC50 (WI-38) | IC50 (VERO) | IC50 (MCF-7) | activity class against HepG2 (HepG2) | activity class against WI-38 (WI-38) | activity class against MCF-7 (MCF-7)
1 | Cc1cc(=O)oc2c1ccc1oc(=N)c(C#N)cc12 [Compound 3, 8-imino-4-methyl-2-oxo-2 H,8 H-pyrano[2,3-f]chromene-9-carbonitrile] | 59 ± 0.22 µg/mL (≈ 234 µM) | 68.2 ± 0.07 µg/mL (≈ 270 µM) | 71.02 ± 0.05 µg/mL (≈ 282 µM) | 70 ± 0.06 µg/mL (≈ 278 µM) | – | – | –
2 | Cc1cc(=O)oc2c1ccc1oc3nc(CC#N)nc(=N)c-3cc12 [Compound 4, 2-(11-Imino-4-methyl-2-oxo-2 H,11 H-pyrano[2’,3’:5,6]chromeno[2,3-d]pyrimidin-9-yl) acetonitrile] | 24.5 ± 0.11 µg/mL (≈ 77 µM) | 31 ± 0.01 µg/mL (≈ 97.4 µM) | 34.1 ± 0.15 µg/mL (≈ 107 µM) | 31.4 ± 0.11 µg/mL (≈ 98.7 µM) | – | – | –
3 | Cc1cc(=O)oc2c3c(ccc12)Oc1nc(CC#N)nc2nc(N)c(C#N)c-3c12 [Compound 5, 2-amino-5-(cyanomethyl)-10-methyl-12-oxo-12 H-7,13-dioxa-3,4,6-triazabenzo[no]tetraphene-1-carbonitrile] | 21.2 ± 1.22 µg/mL (≈ 55.4 µM) | 27.5 ± 0.31 µg/mL (≈ 71.9 µM) | 31.2 ± 0.02 µg/mL (≈ 81.6 µM) | 30 ± 1.01 µg/mL (≈ 78.5 µM) | – | – | –
4 | O=c1[nH]cc(F)c(=O)[nH]1 [Compound 5-Flu, 5-fluorouracil, reference compound] | 2.5 ± 1.03 µg/mL (≈ 19.2 µM) | 5.5 µg/mL (≈ 42.3 µM) | 4 ± 0.04 µg/mL (≈ 30.8 µM) | 3 ± 0.02 µg/mL (≈ 23.1 µM) | – | – | –
5 | Cc1cc(=O)oc2c3c(ccc12)Oc1nc(CC#N)nc2nc(-c4ccccc4)cc-3c12 [Compound 6, 2-(10-Methyl-12-oxo-2-phenyl-12 H-7,13-dioxa-3,4,6-triazabenzo[no]tetraphene-5-yl) acetonitrile] | 19.1 ± 1.13 µg/mL (≈ 45.6 µM) | 26 ± 0.21 µg/mL (≈ 62.1 µM) | 24.1 ± 0.19 µg/mL (≈ 57.6 µM) | 22.5 ± 0.04 µg/mL (≈ 53.8 µM) | – | – | –
6 | Cc1cc(=O)oc2c3c(ccc12)Oc1nc(CC#N)nc2nc4c(c-3c12)CCC4 [Compound 7, 2-(14-Methyl-12-oxo-9,10-dihydro-8 H,12 H-3,11-dioxa-4,6,7-triazaindeno[6,5,4-no]tetraphen-5-yl)acetonitrile] | 9.6 ± 1.22 µg/mL (≈ 25.1 µM) | 9.9 ± 1.04 µg/mL (≈ 25.9 µM) | 11.5 ± 0.05 µg/mL (≈ 30.1 µM) | 9.5 ± 0.04 µg/mL (≈ 24.8 µM) | very strong (1–10 (very strong)) | very strong (1–10 (very strong)) | very strong (1–10 (very strong))
7 | Cc1cc(=O)oc2c3c(ccc12)Oc1nc(CC#N)nc2nc4c(c-3c12)CCCC4 [Compound 8, 2-(15-Methyl-13-oxo-8,9,10,11-tetrahydro-13 H-3,12-dioxa-4,6,7-triazanaphtho[3,2,1-no]tetraphen-5-yl)acetonitrile] | 4.9 ± 0.11 µg/mL (≈ 12.4 µM) | 7.5 ± 0.01 µg/mL (≈ 18.9 µM) | 5.7 ± 0.06 µg/mL (≈ 14.4 µM) | 5.1 ± 0.18 µg/mL (≈ 12.9 µM) | very strong (1–10 (very strong)) | very strong (1–10 (very strong)) | very strong (1–10 (very strong))
8 | Cc1cc(=O)oc2c3c(ccc12)Oc1nc(CC#N)nc2nc4c(c-3c12)CCCCC4 [Compound 9, 2-(16-Methyl-14-oxo-9,10,11,12-tetrahydro-8 H,14 H-3,13-dioxa-4,6,7-triazacyclohepta[4,5]benzo[1,2,3-no]tetraphen-5-yl)acetonitrile] | 5.4 ± 1.22 µg/mL (≈ 13.2 µM) | 5.9 ± 0.03 µg/mL (≈ 14.4 µM) | 6.6 ± 0.02 µg/mL (≈ 16.1 µM) | 7.2 ± 1.02 µg/mL (≈ 17.5 µM) | very strong (1–10 (very strong)) | very strong (1–10 (very strong)) | very strong (1–10 (very strong))
9 | Cc1cc(=O)oc2c3c(ccc12)Oc1nc(CC#N)nc2nc4c(c-3c12)CCCCCC4 [Compound 10, 2-(17-Methyl-15-oxo-8,9,10,11,12,13-hexahydro-15 H-3,14-dioxa-4,6,7-triazacycloocta[4,5]benzo[1,2,3-no]tetraphen-5-yl)acetonitrile] | 5.8 ± 1.03 µg/mL (≈ 13.7 µM) | 7.8 ± 0.1 µg/mL (≈ 18.4 µM) | 8.2 ± 1.04 µg/mL (≈ 19.3 µM) | 8.9 ± 1.02 µg/mL (≈ 21 µM) | very strong (1–10 (very strong)) | very strong (1–10 (very strong)) | very strong (1–10 (very strong))
10 | Cc1cc(=O)oc2c1ccc1[nH]c(=O)c(C#N)cc12 [Compound 11, 4-Methyl-2,8-dioxo-7,8-dihydro-2 H-pyrano[2,3-f]quinoline-9-carbonitrile] | 32.2 ± 1.22 µg/mL (≈ 128 µM) | 39.01 ± 0.07 µg/mL (≈ 155 µM) | 35.5 ± 0.01 µg/mL (≈ 141 µM) | 33.3 ± 1.06 µg/mL (≈ 132 µM) | – | – | –
11 | Cc1cc(=O)oc2c1ccc1oc(=N)c(C(N)=O)cc12 [Compound 12, 8-Imino-4-methyl-2-oxo-2 H,8 H-pyrano[2,3-f]chromene-9-carboxamide] | 37.5 ± 1.13 µg/mL (≈ 139 µM) | 48.2 ± 1.04 µg/mL (≈ 178 µM) | 51.3 ± 1.05 µg/mL (≈ 190 µM) | 49.4 ± 0.19 µg/mL (≈ 183 µM) | – | – | –
12 | Cc1cc(=O)oc2c3c(ccc12)NC(=O)C1=C(N)OC2=C(CCC2)C13 (centres unmarked) [Compound 13, 2-Amino-7-methyl-10c,11,12,13-tetrahydro-3 H-cyclopenta[5,6]pyrano[3,4-c]pyrano[2,3-f]quinoline-3,9(4 H)-dione] | 45.2 ± 1.13 µg/mL (≈ 134 µM) | 56 ± 1.14 µg/mL (≈ 166 µM) | 58.2 ± 1.05 µg/mL (≈ 173 µM) | 53 ± 0.19 µg/mL (≈ 158 µM) | – | – | –
13 | Cc1cc(=O)oc2c3c(ccc12)OC(N)=C1C(=O)NC2=C(CCC2)C13 (centres unmarked) [Compound 14, 3-Amino-7-methyl-10c,11,12,13-tetrahydro-9 H-cyclopenta[b]pyrano [2’,3’:5,6]chromeno [4,3-d]pyridine-2,9(1 H)-dione] | 49 ± 1.22 µg/mL (≈ 146 µM) | 56 ± 0.32 µg/mL (≈ 166 µM) | 58 ± 1.02 µg/mL (≈ 172 µM) | 52 ± 0.01 µg/mL (≈ 155 µM) | – | – | –
14 | Cc1cc(=O)oc2c1ccc1oc(=O)c(C#N)cc12 [Compound 15, 4-Methyl-2,8-dioxo-2 H,8 H-pyrano[2,3-f]chromene-9-carbonitrile] | 35.2 ± 1.13 µg/mL (≈ 139 µM) | 38 ± 1.22 µg/mL (≈ 150 µM) | 40.3 ± 1.19 µg/mL (≈ 159 µM) | 37.03 ± 0.04 µg/mL (≈ 146 µM) | – | – | –
15 | CCOC(=O)c1cc2c(ccc3c(C)cc(=O)oc32)oc1=N [Compound 16, ethyl 8-imino-4-methyl-2-oxo-2 H,8 H-pyrano[2,3-f]chromene-9-carboxylate] | 52.5 ± 1.22 µg/mL (≈ 175 µM) | 59.3 ± 1.04 µg/mL (≈ 198 µM) | 57.5 ± 0.05 µg/mL (≈ 192 µM) | 52.1 ± 0.04 µg/mL (≈ 174 µM) | – | – | –
16 | Cc1cc(=O)oc2c1ccc1oc(=N)c3c(=O)oc4c(c3c12)CCC4 [Compound 17, 3-Imino-7-methyl-3,11,12,13-tetrahydro-2 H,9 H-cyclopenta[5,6]pyrano[3,4-c]pyrano [2,3-f]chromene-2,9-dione] | 40.2 ± 0.23 µg/mL (≈ 120 µM) | 53.5 ± 0.1 µg/mL (≈ 160 µM) | 56.2 ± 1.06 µg/mL (≈ 168 µM) | 52.5 ± 0.18 µg/mL (≈ 157 µM) | – | – | –
17 | CCOC(=O)c1cc2c(ccc3c(C)cc(=O)oc32)oc1=O [Compound 18, Ethyl 4-methyl-2,8-dioxo-2 H,8 H-pyrano[2,3-f]chromene-9-carboxylate] | 54 ± 0.22 µg/mL (≈ 180 µM) | 60.4 ± 0.03 µg/mL (≈ 201 µM) | 66.5 ± 1.02 µg/mL (≈ 221 µM) | 57 ± 1.23 µg/mL (≈ 190 µM) | – | – | –
